We go through three molecules from publication PMC4494705 (PLoS ONE, 2015).

“Also recorded” adds a separate entry of the source. Read-outs that look alike come from different tables or passages of the source.

The conditions of data set [1]: non-human primates; halted development; no reference given; cited from earlier work.
For data set [2], the system named is GCP-II. To be noted: GCP-II inhibition, cited from earlier work.
A short description of data set [3]: Single time point (1 h) brain concentrations after i.n. administration in rats. It is filed as in vivo. As to conditions: rat, 30 mg/kg i.n., 1 h post dose; for concentration at 1 h: male, Wistar, other: intranasal (i.n.).
The nature of data set [4]: Pharmacokinetics of 2-PMPA after i.p. administration in rats. It is filed as in vivo. To be noted: rat, 30 mg/kg i.p. Here is the method: For i.p. studies 2-PMPA was administered as a single i.p. dose. All dosing solutions were prepared on the day of the experiment in 50 mM HEPES buffered saline, and pH adjusted to 7.4 before injection. At various time points following drug administration (0.16, .5, 1, 3, 5 h) post dose, animals (n = 3 per time point, except 3 h n = 2 animals) were euthanized with CO2, and blood samples were collected in heparinized microtubes by cardiac puncture and tissues (olfactory bulb, frontal cortex, and cerebellum) were dissected and immediately flash frozen (-80°C). Plasma was prepared by centrifugation immediately after collection of blood samples. All samples were stored in -80°C until bioanalysis. […]
The maximum plasma concentration (Cmax) and time to Cmax (Tmax) were the observed values. The area under the plasma concentration time curve (AUC) value was calculated to the last quantifiable sample (AUClast) by use of the log-linear trapezoidal rule. The brain to plasma partition coefficients were calculated as a ratio of their AUCs (AUC0-t,brain/AUC0-t,plasma). The elimination half-life (t1/2) was determined by dividing 0.693 by λ z.

The nature of data set [5]: Plasma and CSF exposure after i.n. administration in non-human primate. It is filed as in vivo. As to conditions: male cynomolgus monkey, 30 min post dose. Here is the method: Total dose delivered was 100 mg.
Standard curves were generated in blank artificial CSF. […] Samples were analysed on agilent QTOF mass spectrometer by LC/MS.

In data set [6] the target is T1, GCP-II (Rattus norvegicus, UniProt P70627).
T1 construct: from tissue; host or cells: rat brain (olfactory bulb, cortex, cerebellum), sonicated homogenate supernatant
T1 sequence (P70627 whole entry): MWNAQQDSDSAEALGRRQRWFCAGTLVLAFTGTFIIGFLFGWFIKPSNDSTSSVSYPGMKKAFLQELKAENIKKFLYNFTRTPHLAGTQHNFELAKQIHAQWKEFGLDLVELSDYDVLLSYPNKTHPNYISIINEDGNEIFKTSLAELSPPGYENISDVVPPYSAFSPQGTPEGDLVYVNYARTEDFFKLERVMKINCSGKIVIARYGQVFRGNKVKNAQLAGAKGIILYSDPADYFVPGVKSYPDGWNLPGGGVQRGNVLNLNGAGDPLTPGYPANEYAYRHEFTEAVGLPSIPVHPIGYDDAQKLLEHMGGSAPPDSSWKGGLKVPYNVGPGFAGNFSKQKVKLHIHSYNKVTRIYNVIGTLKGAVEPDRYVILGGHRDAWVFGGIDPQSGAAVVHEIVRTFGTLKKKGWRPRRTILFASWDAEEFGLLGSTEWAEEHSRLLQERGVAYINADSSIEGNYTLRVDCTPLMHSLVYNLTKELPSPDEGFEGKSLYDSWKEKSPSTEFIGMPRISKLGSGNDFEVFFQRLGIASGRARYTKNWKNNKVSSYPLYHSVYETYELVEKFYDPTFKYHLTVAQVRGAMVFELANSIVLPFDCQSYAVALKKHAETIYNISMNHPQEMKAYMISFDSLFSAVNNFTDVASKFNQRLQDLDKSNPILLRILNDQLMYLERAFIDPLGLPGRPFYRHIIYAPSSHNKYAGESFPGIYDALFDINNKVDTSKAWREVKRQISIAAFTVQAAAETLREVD
As to the kind of experiment: Ex vivo GCP-II enzymatic (NAAG hydrolyzing) activity in brain tissue after i.n. administration. To be noted: for inhibition at 30 mg/kg: inhaled or nasal, 30 mg/kg i.n., 1 h post dose, relative to untreated control rats. As to the method: One half of the brain tissues collected following i.n. administration (1h post dose) was used to determine GCP-II NAAG hydrolyzing activity. In brief, tissues were weighed and immersed in 0.5 mL of ice-cold 50 mM Tris Buffer (pH 7.7 at RT). Each tissue was sonicated for 30–60 seconds using an ultrasonic cell disrupter. After a 2 minute spin at 13,000 g, supernatants were analyzed for protein content and NAAG-hydrolyzing activity measurements were performed as previously described.

Data set [7] in a line: Pharmacokinetics of 2-PMPA after i.n. administration in rats. It is filed as in vivo. As to conditions: rat.
For data set [8] the following is noted: following systemic administration; ref [45]; cited from earlier work.
The mark [9] stands for this setting: printed in Fig 1, no method or reference given in this paper, read-out: Potency (IC50).
[10] abbreviates: cerebellum, read-out: Mean concentration in cerebellum.
The mark [11] stands for this setting: frontal cortex, read-out: Mean concentration in cortex.
Where [12] appears, read: olfactory bulb, read-out: Mean concentration in olfactory bulb.

For the molecule `O=C(O)CCC(CCCS)C(=O)O` (stereo not drawn) [2-MPPA, 2-(3-mercaptopropyl)pentane-dioic acid], the “Toxicity observed in primate studies” value in data set [1] was “membranoproliferative glomerular nephritis; also recorded: immunological toxicities”. In addition, the IC50 – broadly, the concentration needed to halve the response being measured – with GCP-II [2] (setting [9]) was 90 nM. For the same molecule, the concentration at 1 h was found to be 210 ng/g in data set [3] (setting [10]), 260 ng/g in data set [3] (setting [11]) and 4460 ng/g in data set [3] (setting [12]).
As to `O=C(O)CCC(CP(=O)(O)O)C(=O)O` (stereo not drawn) [2-PMPA, 2-(phosphonomethyl)-pentanedioic acid], in data set [4] (male, Wistar, cerebellum, ip, read-out: Brain tissue to plasma ratio (AUC0-t,brain/AUC0-t,plasma), cerebellum), the Kp was […]. For the same molecule, the Kp in data set [4] (male, Wistar, frontal cortex, ip, read-out: Brain tissue to plasma ratio (AUC0-t,brain/AUC0-t,plasma), cortex) was […]. Besides, the half-life in data set [4] (male, Wistar, ip, plasma, read-out: Elimination t1/2 (converted)) was 59.4 min. For the same molecule, the Cmax in data set [4] (male, Wistar, ip, plasma, read-out: Peak plasma concentration (Cmax)) was 49500 ng/mL. The AUC(0-t) in data set [4] (male, Wistar, plasma, ip, read-out: AUC0-t plasma) came out at […]. The CL/F in data set [4] (male, Wistar, plasma, ip, read-out: Apparent clearance) was found to be 9.71 mL/min/kg. Moreover, in data set [4], the AUC0-t cerebellum came out at 0.80 µg·h/g, the AUC0-t cortex was […], the AUC0-t olfactory bulb worked out at 1.15 µg·h/g and the “Apparent volume of distribution” value came out at 0.82 L/kg. Also, the “CSF concentration versus the IC50” value in data set [5] (i.n.) is […]. Further, the Plasma level in data set [5] (total dose 100 mg i.n., below the limit of quantitation) is listed as […]. For the same molecule, the IC50 in the data set on GCP-II [2] (ref [4],[13], read-out: IC50) was […]. The “Inhibition of brain GCP-II enzymatic activity ex-vivo (in words)” value on GCP-II [6] (i.n. administration) is recorded as “complete inhibition”. Besides, at GCP-II [6] (read-out: Inhibition of GCP-II activity, cerebellum), the inhibition (in general, the percentage by which the read-out fell short of the control) at 30 mg/kg worked out at 70%. The inhibition at 30 mg/kg at GCP-II [6] (read-out: Inhibition of GCP-II activity, cortex) was […]. For the same molecule, the inhibition at 30 mg/kg on GCP-II [6] (read-out: Inhibition of GCP-II activity, olfactory bulb) was […]. Further, in data set [3], the “Mean concentration in cerebellum” value was found to be 2.13 µg/g, the “Mean concentration in cortex” value turned out to be 10.3 µg/g and the “Mean concentration in olfactory bulb” value amounted to 31.2 µg/g. The same molecule showed a Cmax in data set [7] (male, Wistar, other: intranasal (i.n.), 30 mg/kg i.n., plasma) of 24700 ng/mL. Besides, the AUC(0-t) in data set [7] (male, Wistar, plasma, other: intranasal (i.n.), 30 mg/kg i.n., read-out: AUC0-t plasma) came out at 52300 ng·h/mL. Besides, in data set [7] (30 mg/kg i.n.), the AUC0-t cerebellum came to 5.27 µg·h/g; the AUC0-t cortex worked out at 37.7 µg·h/g; the AUC0-t olfactory bulb amounted to 78.1 µg·h/g; the “Brain tissue to plasma ratio (AUC0-t,brain/AUC0-t,plasma), cerebellum” value came to […]. In addition, in data set [7] (30 mg/kg i.n.), the “Brain tissue to plasma ratio (AUC0-t,brain/AUC0-t,plasma), cortex” value worked out at 0.71 and the “Brain tissue to plasma ratio (AUC0-t,brain/AUC0-t,plasma), olfactory bulb” value came out at 1.49. Besides, the “Share of 2-PMPA reaching the brain accounted from the plasma” value in data set [7] (i.n., pooled plasma and brain data of i.p. and i.n. routes) stood at […]. In addition, the “Brain to plasma ratio” value in data set [8] was […].
Take `O=C(O)CC[C@H](NC(=O)N[C@@H](CS)C(=O)O)C(=O)O` [DCMC, N-[N-[(S)-1,3-dicarboxypropyl]carbamoyl]-L-cysteine, reference compound]: in the data set with GCP-II [2] (setting [9]), the half-maximal inhibitory concentration (IC50) is 3.1 nM. Besides, the results for the concentration at 1 h in data set [3] (setting [10]), in data set [3] (setting [11]) and in data set [3] (setting [12]) were 200 ng/g, 2030 ng/g and 2120 ng/g, respectively.
